What was measured:
[1] = system: p-AKT 473; assay: Survival pathway protein expression by western blotting in SHSY5Y; format: cell-based, human
Procedure: Here, A1 was tested to find its role in eliciting survival pathway proteins in differentiated human neuroblastoma cells in concentration and time dependent manner.
To investigate the effect of A1 on the survival proteins, […] of survival proteins, including p-Erk 44/42, p-AKT 473, Anti BDNF, and p TrkB 816 and p TrKB 515 by western blotting.

[2] = system: mouse neuroblastoma cell line N2A; assay: In vitro neuroprotection against corticosterone, differentiated N2A, 48 hrs; format: cell-based; details: test compound 20 μM + Cort. 400 μM, read-out: % Cell viability ± SD, N2A
Procedure: (§1) Human neuroblastoma cells (SHSY5Y) and mouse neuroblastoma cells (N2A) were procured from American Type Culture Collection (ATCC). SHSY5Y cell cultures were maintained in DMEM F12 (Invitrogen) whereas N2A were cultured in DMEM (Invitrogen) with 10% Fetal Bovine Serum (Gibco) medium, subjected to differentiation to acquire neuronal morphology (employing differentiation media DMEM-F12, 3-5% FBS, (For differentiation, low concentration of FBS was used) and 50 μM retinoic acid). Differentiated cells were later seeded into 96 well plates, at a density of 1×10^4 before being incubated for 48 hrs with the synthesized library. The exhausted culture media was substituted with new culture media containing 0.5 mg/ml MTT dye. Eventually, the OD at 490 nm excitation was measured using a 96-well plate reader. The proportion of viable cells was determined as percentage of absorbance of untreated cultures relative to control.
(§2) In the next attempt, the neuroprotective properties of the generated library (20 μM, 48 hrs) were assessed employing differentiated human neuroblastoma cell line SHSY5Y and mouse neuroblastoma cell line N2A (Biomol Ther., 2022, 30(6), 570-575). The cells were assaulted with the neurotoxic corticosterone (Cort, 400 μM) for 24 hrs after the overnight preincubation of cells with test molecules as a selection criterion. […]

[3] = system: differentiated SHSY5Y cell cultures; assay: Neuroprotective potential in differentiated SHSY5Y after 96 hrs, concentration series with and without corticosterone; format: cell-based, human
[4] = system: p TrkB 515; assay: Survival pathway protein expression by western blotting in SHSY5Y; format: cell-based, human
[5] = system: differentiated human neuroblastoma cell line SHSY5Y; assay: In vitro neuroprotection against corticosterone, differentiated SHSY5Y, 48 hrs; format: cell-based
Procedure: as §1, §2

[6] = Cell viability assay in differentiated neuronal cells (MTT), N2A; format: cell-based; details: mouse, read-out: % Cell viability ± SD, N2A
Description: (§3) In the present disclosure outlined herein, a focused library of cannabidiol analogues were studied for possible neuro-protective potential employing cell line-based stress model systems which mimic the biological stress conditions in vitro (J Cell Biochem., 2018, 119(8), 6482-6491).
as §1

[7] = system: p-Erk 44/42; assay: Survival pathway protein expression by western blotting in SHSY5Y; format: cell-based, human; details: for Relative Protein Expression p ERK 44/42: A1 + Cort.
[8] = Cell viability assay in differentiated neuronal cells (MTT), SHSY5Y; format: cell-based; details: human, read-out: % Cell viability ± SD, SHSY5Y
Description: as §3, §1

[9] = system: differentiated SHSY5Y cell cultures; assay: Neuroprotective potential in differentiated SHSY5Y after 96 hrs, concentration series with and without corticosterone; format: cell-based, human; remark: listed apart in the source
Description: Furthermore, A1 intervention in presence of corticosterone evidenced neuroprotective effect against corticosterone induced impairment and cell death.

[10] = system: depression mice model; assay: In vivo corticosterone induced depression model: Forced Swim Test; set-up: species or system mouse (male C57)
Procedure: In vivo efficacy (ameliorates behavioral despair) of A1 in corticosterone induced model of stress (J. Neurochem., 2018 146, 722 734). […] A1 (20 mg/kg, oral) dissolved in normal saline was given for 3 consecutive weeks following corticosteroid stress. The sucrose preference test was employed, tail suspension test, and forced swim test to evaluate behavioral distress. We noticed that A1 can resurrect mice in stressful situations. […]
The forced swim test was employed to evaluate behavioral melancholy in depressed subjects. Each animal was individually conditioned in a glass cylinder 20 cm long, 10 cm deep and 14 cm radius of curvature. After being submerged in water for 5 mins, the mice's cumulative stationary episode, struggle in water, and eventual floating condition were evaluated. The duration for which the animals were motionless while attempting to hold both of their front limbs still was calculated by interpreting the visualizations portraying behavioral despair (Front Behav Neurosci., 2018, 12, 42).

[11] = A1 for multiple time spans, corticosterone

C=C(C)[C@@H]1CCC(C)=C[C@H]1c1c(O)cc(CCCCC)c(CN2CCOCC2)c1O [A1, 2′-(morpholin-1-ylmethyl)-cannabidiol]
Relative Protein Expression PAKT 473 ([1]; A1 5 μM, 6 hrs): 0.67 | Relative Protein Expression PAKT 473 ([1]; A1 10 μM, 6 hrs): 1.60 | Relative Protein Expression PAKT 473 ([1]; A1 + Cort., 0 hr): 1.00 | Relative Protein Expression PAKT 473 ([1]; A1 + Cort., 0.5 hr): 11.68 | Relative Protein Expression PAKT 473 ([1]; A1 + Cort., 1 hr): 14.78 | Relative Protein Expression PAKT 473 ([1]; A1 + Cort., 2 hr): 17.15 | Relative Protein Expression PAKT 473 ([1]; A1 + Cort., 4 hr): 26.33 | Relative Protein Expression PAKT 473 ([1]; A1 + Cort., 6 hr): 31.80 | Relative Protein Expression PAKT 473 ([1]; A1/Cort., A1 5 μM, 6 hrs): 0.60 | Relative Protein Expression PAKT 473 ([1]; A1/Cort., A1 10 μM, 6 hrs): 1.35 | expression of p-AKT 473 (in words) [1, 11]: remarkably increased | viability at 20 µM [2]: 97.6 ± 1.97% | cell viability compared to positive control DHF (in words) ([3]; A1 alone 1.25, 2.5, 5, 10, 20 and 40 μM): no significant variation in cell viability when compared to positive control DHF | viability at 1.25 µM ([3]; Homo sapiens, SH-SY5Y, 96 h, A1 1.25 μM, without Cort): 102% | viability at 2.5 µM ([3]; Homo sapiens, SH-SY5Y, 96 h, A1 2.5 μM, without Cort): 108% | viability at 5 µM ([3]; Homo sapiens, SH-SY5Y, 96 h, A1 5 μM + Cort 400 μM, 96 hrs): 103% | viability at 5 µM ([3]; Homo sapiens, SH-SY5Y, 96 h, A1 5 μM, without Cort): 108% | viability at 10 µM ([3]; Homo sapiens, SH-SY5Y, 96 h, A1 10 μM, without Cort): 117% | viability at 20 µM ([3]; Homo sapiens, SH-SY5Y, 96 h, A1 20 μM, without Cort): 115% | viability at 40 µM ([3]; Homo sapiens, SH-SY5Y, 96 h, A1 40 μM, without Cort): 115% | toxicity (in words) ([3]; concentrations as high as 40 μM, up to 96 hrs, with and without corticosterone): non-toxic even at concentrations as high as 40 μM | Relative Protein Expression p TrkB 515 ([4]; A1 5 μM, 6 hrs): 0.23 | Relative Protein Expression p TrkB 515 ([4]; A1 + Cort., 0 hr): 1.019 | Relative Protein Expression p TrkB 515 ([4]; A1 + Cort., 0.5 hr): 2.277 | Relative Protein Expression p TrkB 515 ([4]; A1 + Cort., 1 hr): 6.57 | Relative Protein Expression p TrkB 515 ([4]; A1 + Cort., 2 hr): 8.707 | Relative Protein Expression p TrkB 515 ([4]; A1 + Cort., 4 hr): 8.145 | expression of p TrkB 515 (in words) [4, 11]: remarkably increased | cell viability (in words) ([5]; 20 μM + Cort. 400 μM, compared with corticosterone treated group, SHSY5Y and N2A): the highest number of viable cells were observed in A1 treated line | viability at 20 µM ([5]; Homo sapiens, SH-SY5Y, test compound 20 μM + Cort. 400 μM, 48 hrs, read-out: % Cell viability ± SD, SHSY5Y): 97.9 ± 1.31% | viability at 48 h, 20 µM [6]: 114 ± 2.28% | Relative Protein Expression p ERK 44/42 ([7]; 0 hr): 1.00 | Relative Protein Expression p ERK 44/42 ([7]; 0.5 hr): 1.32 | Relative Protein Expression p ERK 44/42 ([7]; 1 hr): 3.29 | Relative Protein Expression p ERK 44/42 ([7]; 2 hr): 8.33 | Relative Protein Expression p ERK 44/42 ([7]; 4 hr): 9.69 | Relative Protein Expression p ERK 44/42 ([7]; 6 hr): 10.62 | expression of p-Erk 44/42 (in words) [7, 11]: remarkably increased | viability at 48 h, 20 µM [8]: 115.7 ± 0.71% | viability at 1.25 µM ([9]; Homo sapiens, SH-SY5Y, 96 h, A1 1.25 μM + Cort 400 μM, 96 hrs): 83.8% | viability at 2.5 µM ([9]; Homo sapiens, SH-SY5Y, 96 h, A1 2.5 μM + Cort 400 μM, 96 hrs): 93.6% | viability at 10 µM ([9]; Homo sapiens, SH-SY5Y, 96 h, A1 10 μM + Cort 400 μM, 96 hrs): 113% | viability at 20 µM ([9]; Homo sapiens, SH-SY5Y, 96 h, A1 20 μM + Cort 400 μM, 96 hrs): 108% | viability at 40 µM ([9]; Homo sapiens, SH-SY5Y, 96 h, A1 40 μM + Cort 400 μM, 96 hrs): 102% | neuroprotection against corticosterone (in words) ([9]; in presence of corticosterone): substantial level of neuroprotection by significantly lowering the corticosterone cytotoxic activity | % Immobility (sec) ± SD (dead time) ([10]; with Cort.): 17.67 ± 5.12 s | % Latency to immobility (sec) ± SD ([10]; with Cort.): 34.06 ± 14.03 s | % Immobility (sec) ± SD (dead time) ([10]; without Cort.): 24.22 ± 5.30 s | % Latency to immobility (sec) ± SD ([10]; without Cort.): 44.59 ± 19.55 s
